Data: patent publication US20260174672A1, “COMPLEX FOR IMPROVING SKIN CONDITION” (LG H&H CO., LTD., priority 2022, published 2026)

Assays:
[1] = test system: Raw 264.7 cells (NO production); assay: Suppression of NO production in LPS-treated macrophages (Griess); type: cell-based, mouse; conditions: Raw264.7 cells, sample 30 minutes then 500 ng/ml LPS 18 hours, concentrations of Table 2
Excerpt: (§1) For the evaluation of in vitro skin improvement efficacy, chondroitin sulfate (CS), glutamine (Q), arginine (R), Examples 1 and 2 (CS-R complex and CS-Q complex), and Comparative Examples 1 and 2 (CS/R mixture and CS/Q mixture) were used as culture solutions, and were ultimately included at the concentrations shown in the following Table 2 in each evaluation.
To compare the skin soothing effects of chondroitin sulfate (CS), arginine (R), and glutamine (Q), a simple mixture of chondroitin sulfate and an amino acid (CS/AA mixture), and a chondroitin sulfate-amino acid complex (CS-AA complex), mouse macrophage cell line Raw 264.7 cells (ATCC, catalog No. CRL-2788) was used to confirm whether the production of NO was suppressed.
Specifically, Raw264.7 cells were aliquoted at 1 to 2×10^5 cells/ml in a 24-well tissue culture plate and cultured in a DMEM medium containing 10% FBS for 24 hours. The culture was carried out in a 5% CO2 incubator. Subsequently, the medium was replaced with a serum-free medium, and the cells were starved for 12 hours, and then treated with each sample at a predetermined concentration according to Table 2 for 30 minutes. After the sample treatment was completed, the cells were treated with 500 ng/ml lipopolysaccharides (LPS, SIGMA, catalog No. L43901) and then cultured for an additional 18 hours. Next, the culture supernatant was taken, transferred to a 96-well tissue culture plate and reacted with GREISS reagent (SIGMA, catalog No. G4410) at room temperature for 15 minutes, and then absorbance was measured at 540 nm using an ELISA reader. Thereafter, NO was quantified using the measured absorbance, and the reduction rate of NO produced in the experimental group compared to the positive control treated with 20 μg/ml of L-NMMA was calculated as (the value of the positive control−the value of the sample treatment group)÷the value of the negative control×100, which was used as a NO production suppression ability.

[2] = Zeta-potential analysis by dynamic light scattering (Zetasizer Nano-ZS); type: physicochemical; conditions: dispersed in distilled water, triplicate, several peaks printed with their share (%)
Experimental: To analyze the binding characteristics in the complexes of Examples 1 and 2, particle size analysis and zeta-potential analysis were performed. Chondroitin sulfate (CS), arginine (R), and glutamine (Q), a simple mixture of chondroitin sulfate and arginine or glutamine (CS/R or CS/Q mixture), and a complex of chondroitin sulfate and arginine or glutamine (CS-R or CS-Q complex) were analyzed by dynamic light scattering using a Zetasizer Nano-ZS (Malvern Instruments, Worcester, UK) to measure the particle size (effective dynamic diameter), particle size distribution and zeta potential of the samples dispersed on a colloid. Samples for the measurements were prepared by being dispersed in distilled water, and an automatic temperature-controlled cell with a scattering angle of 90° and software provided by the manufacturer were used. After measurement was conducted in triplicate for each sample, a zeta-potential value was calculated, and the results are shown in the following Table 1.

[3] = test system: type I collagen (procollagen type 1-C propeptide, PICP) in human fibroblasts; assay: Collagen synthesis effect in vitro (PICP EIA); type: cell-based; conditions: 48 hours, concentrations of Table 2, (sample − negative control) ÷ negative control × 100
Excerpt: as §1
To compare the wrinkle amelioration effects of chondroitin sulfate (CS), arginine (R), and glutamine (Q), a simple mixture of chondroitin sulfate and an amino acid (CS/AA mixture), and a chondroitin sulfate-amino acid complex (CS-AA complex), the effect of promoting the synthesis of type I collagen was confirmed using skin fibroblasts. For the evaluation, procollagen type 1-C propeptide (PICP), which is typically synthesized in the highest amount in fibroblasts, was quantified.
Specifically, human fibroblasts were aliquoted at 1×10^5 cells/well in a 48-well culture plate and cultured in a Dulbecco's Modified Eagle's Medium (DMEM, Gibco) medium containing 10% fetal bovine serum (FBS) for 24 hours. Subsequently, the medium was replaced with a serum-free DMEM medium containing 2 wt % of each culture solution according to Table 2 to treat cells with an analyte for 48 hours. Next, 20 μl of the culture supernatant was taken to measure the degree of collagen increase at each concentration at 450 nm using a Procollagen Type-1-C-peptide Enzyme Immuno Assay (PICP EIA) kit.

human fibroblasts = assay: Cell activity effect in vitro (CCK-8); type: cell-based; conditions: 48 hours, CCK-8, concentrations of Table 2, (sample − negative control) ÷ negative control × 100, in %
Excerpt: as §1
To compare the effects of chondroitin sulfate (CS), arginine (R), and glutamine (Q), a simple mixture of chondroitin sulfate and an amino acid (CS/AA mixture), and a chondroitin sulfate-amino acid complex (CS-AA complex) on skin cell activity, human fibroblast culture was used to confirm whether cell activity was increased.
Specifically, human fibroblasts were aliquoted at 5×10^3 cells/well and cultured in a DMEM medium containing 10% FBS for 24 hours. Subsequently, the culture medium was removed, and the cells were treated with each sample at a predetermined concentration according to Table 2 for 48 hours. Then, a reagent provided in a CCK-8 kit (DOJINDO, Cell Counting Kit-8, catalog No. CK04) was added, the resulting mixture was incubated for 4 hours, and then absorbance was measured at 450 nm using an ELISA reader.

[4] = test system: hyaluronic acid production in human dermal fibroblasts; assay: Hyaluronic acid synthesis effect in vitro (Hyaluronan ELISA); type: cell-based; conditions: 24 hours, concentrations of Table 2, (sample − negative control) ÷ negative control × 100
Excerpt: as §1
To compare the skin moisturizing effects of chondroitin sulfate (CS), arginine (R), and glutamine (Q), a simple mixture of chondroitin sulfate and an amino acid (CS/AA mixture), and a chondroitin sulfate-amino acid complex (CS-AA complex), human dermal fibroblasts were used to confirm whether the production of hyaluronic acid was increased.
Specifically, fibroblasts were cultured in a DMEM medium containing 10% FBS until the cells occupied 80% of the culture dish. Subsequently, the cells were treated with each sample at a predetermined concentration according to Table 2 for 24 hours, and then the concentration of hyaluronic acid was measured using a Hyaluronan ELISA kit (R&D systems, catalog No. DY3614-05).

[5] = test system: Zonula Occludens-1 (ZO-1) in HaCaT cells; assay: mRNA expression of tight junction protein ZO-1 (real-time PCR); type: cell-based, human; conditions: 24 hours, concentrations of Table 2, (sample − negative control) ÷ negative control × 100
Excerpt: as §1
To compare the skin barrier recovery effects of chondroitin sulfate (CS), glutamine (Q), a simple mixture of chondroitin sulfate and glutamine (CS/Q mixture), and a chondroitin sulfate-glutamine complex (CS-Q complex), it was confirmed whether the expression of Zonula Occludens-1 (ZO-1), one of the proteins that make up the tight junctions at the intercellular junctions in the skin barrier, was increased.
Specifically, human keratinocyte cell line HaCaT cells were first cultured at 37° C. in a 5% CO2 environment in a DMEM medium (Gibco, Waltham, MA, USA) supplemented with 10% fetal bovine serum (FBS, Gibco, Waltham, MA, USA), […] penicillin, and […] streptomycin. […] The concentration of the extracted RNA was quantified, and 1 μg of RNA was reacted with a cDNA synthesis kit (ET21100, PhileKorea Technology) at 42° C. for 30 minutes and 72° C. for 10 minutes to synthesize cDNA. […]

[6] = test system: Staphylococcus epidermidis; assay: Growth rate of beneficial skin bacterium (optical density); type: cell-based; conditions: TSB medium, 30 to 37° C., 6 to 18 hours, concentrations of Table 2; relative to negative control
Experimental: To evaluate the prebiotic ability of Example 2, the degrees of enhancement in beneficial bacteria among the skin resident flora were compared before and after the CS or Example 2 treatment. Staphylococcus epidermidis was selected as a representative beneficial bacterium, and the growth rates of the beneficial bacterium were compared before and after treatment with the materials.
The growth rate of the beneficial bacterium was evaluated by the following method. A sterile liquid medium was prepared using a commercial tryptic soy broth (TSB, DFICO) medium, and a glycerol stock of S. epidermidis was inoculated into the sterile liquid TSB medium and pre-cultured at 30 to 37° C. for 6 to 18 hours. Such a pre-culture was performed once to twice. Thereafter, chondroitin sulfate (CS) and Example 2 were added to a sterile liquid TSB medium at each predetermined concentration according to Table 2, and the preculture solution was inoculated to culture cells at 30 to 37° C. for 6 to 18 hours.
After culture, the optical density (OD) immediately after inoculation and the optical density during the stationary phase of growth were measured, and the ratio of these values (growth rate) was compared. […] After the evaluation was carried out three times, the average growth rate, the standard deviation, and the like were calculated, and then the significance was verified by a t-test.

## N=C(N)NCCC[C@H](N)C(=O)O [Arginine (R), arginine]
[1]
  NO production suppression ability: 30.3
[2]
  Zeta potential (mV): −4 mV
[3]
  Collagen type 1 synthesis ability: −12.58
Human fibroblasts
  Cell activity ability: −12.79
[4]
  Hyaluronic acid synthesis ability: −2.1

## NC(=O)CC[C@H](N)C(=O)O [Glutamine (Q), glutamine]
[1]
  NO production suppression ability: 20.4
[3]
  Collagen type 1 synthesis ability: 2.78
Human fibroblasts
  Cell activity ability: −11.66
[5]
  ZO-1 expression ability: 11.0
[4]
  Hyaluronic acid synthesis ability: 2.8

## CC1=C(/C=C/C(C)=C/C=C/C(C)=C/C(=O)O)C(C)(C)CCC1 [Retinoic acid]
[4]
  Hyaluronic acid synthesis ability: 16.8

## TGF-b
[3]
  Collagen type 1 synthesis ability: 21.15

## chondroitin sulfate [Chondroitin sulfate (CS)]
[1]
  NO production suppression ability: 25.6
[2]
  Zeta potential (mV): −18 mV
[3]
  Collagen type 1 synthesis ability: 3.55
[6]
  S. epidermidis growth rate (%): 6.081%
Human fibroblasts
  Cell activity ability: 8.74
[5]
  ZO-1 expression ability: 25.0
[4]
  Hyaluronic acid synthesis ability: 1.8
